# Values joined by “and” are separate entries in the source; they are usually repeats but may differ in a detail not shown here. Equal values may be shown once.
# Assays:
# Test in all cases: G assay PDZ-PL binding
# Settings in all cases: peptide 10 uM, protein 5
# [1] = biological target: T1, ERBIN domain 1 (Homo sapiens, UniProt Q96RT1)
# T1 construct: made in house; host or cells: E. coli (DH5alpha, BL21 or JM109)
# Procedure: (§1) (1) A PDZ-domain polypeptide is bound to a surface, e.g. a protein binding surface. In a preferred embodiment, a GST/PDZ fusion protein containing one or more PDZ domains is bound to a polystyrene 96-well plate. […] In one embodiment, the GST/PDZ fusion protein is bound via an anti-GST antibody that is coated onto the 96-well plate. Adequate binding to the plate can be achieved when: • a. 100 uL per well of 5 ug/mL goat anti-GST polyclonal antibody (Pierce) in PBS is added to a polystyrene 96-well plate (e.g., Num Polysorb) at 4° C. for 12 hours. • b. The plate is blocked by addition of 200 uL per well of PBS/BSA for 2 hours at 4° C. • c. The plate is washed 3 times with PBS. • d. 50 uL per well of 5 ug/mL GST/PDZ fusion protein) or, as a negative control, GST polypeptide alone (i.e. not a fusion protein) in PBS/BSA is added to the plate for 2 hours at 4° C. • e. The plate is again washed 3 times with PBS. […]
# (§2) (3) The binding of the biotinylated peptide to the GST/PDZ fusion protein surface can be detected using a variety of methods and detectors known to one of skill in the art. In one embodiment, 100 uL per well of 0.5 ug/mL streptavidin-horse radish peroxidase (HRP) conjugate dissolved in BSA/PBS is added and allowed to react for 20 minutes at 4° C. The plate is then washed 5 times with 50 mM Tris pH 8.0 containing 0.2% Tween 20, and developed by addition of 100 uL per well of HRP-substrate solution (TMB, Dako) for 20 minutes at room temperature (RT). The reaction of the HRP and its substrate is terminated by addition of 100 uL per well of 1M sulfuric acid, and the absorbance of each well of the plate is read at 450 nm.
# (§3) (4) Specific binding of a PL peptide and a PDZ domain polypeptide is determined by comparing the signal from the well(s) in which the PL peptide and PDZ domain polypeptide are combined, with the background signal(s). The background signal is the signal found in the negative control(s). Typically a specific or selective reaction will be at least twice background signal, more typically more than 5 times background, and most typically 10 or more times the background signal. In addition, a statistically significant reaction will involve multiple measurements of the reaction with the signal and the background differing by at least two standard errors, more typically four standard errors, and most typically six or more standard errors. Correspondingly, a statistical test (e.g. a T-test) comparing repeated measurements of the signal with-repeated measurements of the background will result in a p-value<0.05, more typically a p-value<0.01, and most typically a p-value<0.001 or less. As noted, in an embodiment of the “G” assay, the signal from binding of a given PL peptide to immobilized (surface bound) GST polypeptide alone is one suitable negative control (sometimes referred to as “B 1”). Because all measurement are done in multiples (i.e. at least duplicate) the arithmetic mean (or, equivalently, average.) of several measurements is used in determining the binding, and the standard error of the mean is used in determining the probable error in the measurement of the binding. The standard error of the mean of N measurements equals the square root of the following: the sum of the squares of the difference between each measurement and the mean, divided by the product of (N) and (N−1). Thus, in one embodiment, specific binding of the PDZ protein to the platebound peptide is determined by comparing the mean signal (“mean S”) and standard error of the signal (“SE”) for a particular PL-PDZ combination with the mean B1.
# (§4) For convenience, the assay conditions described in this section are referred to as the “G’ assay” and the “G” assay,” with the specific conditions described in the preceding section on G assays being referred to as the “G° assay.” The “G′ assay” is identical to the “G° assay” except at step (2) the peptide concentration is 10 uM instead of 20 uM. […]
# [2] = biological target: T2, FLJ11215 domain 1 (Homo sapiens, UniProt Q9NUP9)
# T2 construct: made in house; host or cells: E. coli (DH5alpha, BL21 or JM109), vector pGEX-3X
# Procedure: as §1, §2, §3, §4
# [3] = biological target: T3, GTPase domain 1 (Homo sapiens, UniProt Q96FS4)
# T3 construct: made in house; host or cells: E. coli (DH5alpha, BL21 or JM109)
# Procedure: as §1, §2, §3, §4
# [4] = biological target: T4, KIAA0147 domain 2 (Homo sapiens, UniProt Q14160)
# T4 construct: made in house; host or cells: E. coli (DH5alpha or BL-21)
# Procedure: as §1, §2, §3, §4
# [5] = biological target: T5, KIAA0545 domain 1 (Homo sapiens, UniProt O60292)
# T5 construct: made in house; host or cells: E. coli (DH5alpha or BL-21)
# Procedure: as §1, §2, §3, §4
# [6] = biological target: T6, KIAA1526 #119.1 domain 1 (Homo sapiens, UniProt Q9P202)
# T6 construct: made in house; host or cells: E. coli (DH5alpha or BL-21)
# Procedure: as §1, §2, §3, §4
# [7] = biological target: T7, KIAA1634 domain 1 (Homo sapiens, UniProt Q5TCQ9)
# T7 construct: made in house; host or cells: E. coli (DH5alpha, BL21 or JM109)
# Procedure: as §1, §2, §3, §4
# [8] = biological target: T8, MAGI 1 domain 3 (Homo sapiens, UniProt Q96QZ7)
# T8 construct: made in house; host or cells: E. coli (DH5alpha, BL21 or JM109)
# Procedure: as §1, §2, §3, §4
# [9] = biological target: T9, MAGI 1 domain 4 (Homo sapiens, UniProt Q96QZ7)
# T9 construct: made in house; host or cells: E. coli (DH5alpha, BL21 or JM109)
# Procedure: as §1, §2, §3, §4
# [10] = biological target: T10, MUPP1 domain 10 (Homo sapiens, UniProt O75970)
# T10 construct: made in house; host or cells: E. coli (DH5alpha or BL-21)
# Procedure: as §1, §2, §3, §4
# [11] = biological target: T11, PIST domain 1 (Homo sapiens, UniProt Q9HD26)
# T11 construct: made in house; host or cells: E. coli (DH5alpha or BL-21)
# Procedure: as §1, §2, §3, §4
# [12] = biological target: T12, PSD95 domain 1 (Homo sapiens, UniProt P78352)
# T12 construct: made in house; host or cells: E. coli (DH5alpha, BL21 or JM109), vector pGEX-3X
# Procedure: as §1, §2, §3, §4
# [13] = biological target: T13, X-11 beta domain 1 (Homo sapiens, UniProt Q99767)
# T13 construct: made in house; host or cells: E. coli (DH5alpha, BL21 or JM109)
# Procedure: as §1, §2, §3, §4
# [14] = biological target: T14, X-11 beta domain 2 (Homo sapiens, UniProt Q99767)
# T14 construct: made in house; host or cells: E. coli (DH5alpha or BL-21)
# Procedure: as §1, §2, §3, §4
# T7 sequence (Q5TCQ9 401-502): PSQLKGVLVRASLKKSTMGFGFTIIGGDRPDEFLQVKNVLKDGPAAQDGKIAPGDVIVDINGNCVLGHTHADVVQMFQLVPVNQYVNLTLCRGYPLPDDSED
# T2 sequence (Q9NUP9 86-182): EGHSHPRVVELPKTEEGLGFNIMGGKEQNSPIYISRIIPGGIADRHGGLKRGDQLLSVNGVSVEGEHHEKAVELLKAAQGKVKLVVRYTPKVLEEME
# T10 sequence (O75970 with tags, fused parts or gaps): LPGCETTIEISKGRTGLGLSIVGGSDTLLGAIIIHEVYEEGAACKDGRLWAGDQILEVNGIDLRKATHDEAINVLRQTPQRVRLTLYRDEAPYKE
# T1 sequence (Q96RT1 1313-1412): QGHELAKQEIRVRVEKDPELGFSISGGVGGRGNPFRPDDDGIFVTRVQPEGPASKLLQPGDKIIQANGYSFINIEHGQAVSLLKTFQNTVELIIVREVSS
# T9 sequence (Q96QZ7 with tags, fused parts or gaps): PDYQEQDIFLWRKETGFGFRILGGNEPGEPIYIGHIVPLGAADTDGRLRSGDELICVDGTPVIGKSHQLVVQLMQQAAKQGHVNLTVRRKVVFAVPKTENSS
# T14 sequence (Q99767 with tags, fused parts or gaps): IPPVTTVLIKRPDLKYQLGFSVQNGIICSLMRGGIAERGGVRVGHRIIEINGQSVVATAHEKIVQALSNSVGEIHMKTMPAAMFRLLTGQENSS
# T4 sequence (Q14160 856-952): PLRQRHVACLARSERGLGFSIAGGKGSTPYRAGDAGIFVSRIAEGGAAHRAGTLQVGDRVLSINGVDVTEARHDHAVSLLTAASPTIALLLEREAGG
# T6 sequence (Q9P202 130-232): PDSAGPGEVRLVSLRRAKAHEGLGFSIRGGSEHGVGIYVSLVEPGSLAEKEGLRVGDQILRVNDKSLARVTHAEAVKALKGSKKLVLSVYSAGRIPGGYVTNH
# T8 sequence (Q96QZ7 with tags, fused parts or gaps): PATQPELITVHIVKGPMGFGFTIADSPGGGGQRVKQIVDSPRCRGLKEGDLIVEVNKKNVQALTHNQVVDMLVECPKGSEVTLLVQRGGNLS
# T13 sequence (Q99767 with tags, fused parts or gaps): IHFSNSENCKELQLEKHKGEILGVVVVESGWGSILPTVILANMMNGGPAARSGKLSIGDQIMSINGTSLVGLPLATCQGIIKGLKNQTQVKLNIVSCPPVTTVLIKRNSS
# T12 sequence (P78352 62-156): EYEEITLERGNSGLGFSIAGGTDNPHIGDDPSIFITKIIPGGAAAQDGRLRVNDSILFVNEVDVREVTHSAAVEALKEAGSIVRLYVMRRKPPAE
# T3 sequence (Q96FS4 680-767): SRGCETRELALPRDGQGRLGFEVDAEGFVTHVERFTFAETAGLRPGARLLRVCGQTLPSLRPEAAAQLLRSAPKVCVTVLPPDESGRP
# T5 sequence (O60292 955-1050): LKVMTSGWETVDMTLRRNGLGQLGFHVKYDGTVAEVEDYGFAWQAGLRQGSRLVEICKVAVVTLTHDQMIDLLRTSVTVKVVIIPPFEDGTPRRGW
substance,measurement,setting,value
"20 mer peptide corresponding to the C-terminus of HPV16 E6 (PDZ ligand), biotinylated in binding assays; ends SSRTRRETQL (SEQ ID NO: 13) [HPV E6 #16]",Ave OD,[1]; A450 nm,0.36 and 0.342
same,OD S/N,[1]; vs GST only well,1.82 and 1.30
same,Ave OD,[2]; A450 nm,0.449 and 0.666
same,OD S/N,[2]; vs GST only well,2.77 and 2.74
same,Ave OD,[3]; A450 nm,0.3505
same,OD S/N,[3]; vs GST only well,1.12
same,Ave OD,[4]; A450 nm,0.3745
same,OD S/N,[4]; vs GST only well,2.46
same,Ave OD,[5]; A450 nm,0.4395
same,OD S/N,[5]; vs GST only well,3.96
same,Ave OD,[6]; A450 nm,0.425
same,OD S/N,[6]; vs GST only well,1.38
same,Ave OD,[7]; A450 nm,3.465 and 3.336
same,OD S/N,[7]; vs GST only well,19.04 and 19.45
same,Ave OD,[8]; A450 nm,0.354
same,OD S/N,[8]; vs GST only well,1.46
same,Ave OD,[9]; A450 nm,0.395 and 0.496
same,OD S/N,[9]; vs GST only well,1.20 and 1.58
same,Ave OD,[10]; A450 nm,0.3925 and 0.3915
same,OD S/N,[10]; vs GST only well,2.03 and 1.96
same,Ave OD,[11]; A450 nm,0.3855
same,OD S/N,[11]; vs GST only well,1.96
same,Ave OD,[12]; A450 nm,0.942
same,OD S/N,[12]; vs GST only well,4.81
same,Ave OD,[13]; A450 nm,0.352
same,OD S/N,[13]; vs GST only well,2.02
same,Ave OD,[14]; A450 nm,0.4315 and 0.4265
same,OD S/N,[14]; vs GST only well,2.95 and 1.78
